Results taken from article PMC10180197, “Novel Pyrimidine Derivatives as Antioxidant and Anticancer Agents: Design, Synthesis and Molecular Modeling Studies” (Molecules, 2023).
Read-outs that look alike come from different tables or passages of the source.

Tests used:
[1] = Experimental determination of lipophilicity as RM values (RP-TLC); type: physicochemical; conditions: methanol/water 70/30 v/v, 24 °C, SD < 10%
Description: Lipophilicity is an important physicochemical parameter of a drug candidate, linking solubility and membrane permeability with the ADMET (absorption, distribution, metabolism, elimination and toxicity) properties and the overall suitability of a molecule. Reversed-phase thin-layer chromatography was the method used to experimentally determine the lipophilic character of the synthesized compounds as RM values (Table 2). Lipophilicity was also theoretically calculated as clog P values using the Bio-Loom program of BioByte Corp (http://www.biobyte.com/, (accessed on 1 March 2023)). An attempt was made to correlate the experimental RM values with the theoretically calculated clog P values (Table 2). […] This disagreement could be attributed to several factors, e.g., different solvation, silanophilic interactions and hydrogen bonding.
Lipophilicity as RM values was determined through reversed-phase TLC (RP-TLC) on silica gel plates impregnated with 5% v/v liquid paraffin in light petroleum ether. Methanol/water mixture (70/30, v/v) was used as mobile phase. Closed chromatography tanks saturated with the mobile phase at 24 °C were used for the development of the plates while the spots were detected under UV light. For the determination of RM values, five individual measurements of Rf values were recorded, and the RM values were derived from the following Equation (1). (1) RM=log1/Rf−1

[2] = Inhibition of AAPH induced linoleic acid peroxidation
Method: For the lipid peroxidation study, 2,2′-Azobis(2-methylpropionamidine) dihydrochloride (AAPH) was used as the generator of peroxy radicals and sodium linoleate as the substrate that undergoes peroxidation. The conversion of linoleic acid to 13-hydroperoxy-linoleic acid was recorded at 234 nm. The change of absorbance reflects the possible antioxidant activity of the tested compounds, in comparison with the reference compound, Trolox.
In vitro study was performed as reported previously by our group. AAPH was used as a free radical generator of alkyl peroxyl radicals. For this experimental procedure, 10 μL of the tested compound (from the stock solution), 10 μL sodium linoleate (16 mM), 50 μL AAPH (40 mM) and 930 μL phosphate-buffered solution (pH 7.4) were added in a UV cuvette (1 mL), pre thermostated at 37 °C. The ability of the compounds to prevent the oxidation of linoleic acid from alkyl peroxyl radicals was evaluated by recording the change of absorbance at 234 nm, due to the conversion of linoleic acid to 13-hydroperoxy-linoleic acid. Trolox was used as the reference.

A549 cell line = assay: MTT cytotoxicity assay, A549; type: cell-based, human; conditions: 24 h; for cytotoxicity at 10 µM / cytotoxicity at 50 µM / cytotoxicity at 100 µM: Homo sapiens; for cytotoxicity at 10 µM: read-out: % Cell Toxicity 10 μΜ; for cytotoxicity at 50 µM: read-out: % Cell Toxicity 50 μΜ; for cytotoxicity at 100 µM: A549, 100 μΜ, read-out: % Cell Toxicity 100 μΜ
Method: The compounds of this study were also tested for their cytotoxic effects against the adenocarcinomic human alveolar basal epithelial cell line (A549) at different concentrations (100 μM, 75 μΜ, 50 μM and 10 μM).
Τhe MTT assay was used to evaluate cell viability or cell toxicity, depending on the cell line being tested. The experimental procedure was performed in a 96-well plate, where the cells were seeded and incubated (37 °C, 5% CO2) for 24 h to grow and cover the surface of the wells. Τhe seeding concentrations for the HaCaT and A549 cells were 30 × 10^4 cells/mL and 20 × 10^4 cells/mL, respectively. After the first incubation, the solutions of the compounds (with different concentrations) were added to the adherent cells and incubated for another 24 h. The compounds were tested in triplicate against the control (only cells in medium), the blank (only medium) and the positive/negative control (cells in 100 μM silibinin solution) triplicates. Silibinin, a flavonoid with known anticancer activities, was used as a negative control for the cell viability assay and as positive control for the cytotoxicity testing assay. The light-sensitive MTT-standard solution was prepared by dissolving 1 mg/mL MTT in PBS and then filtrated (in a […] filter (Millipore, Carrigtwohill, Ireland)). On the third day, an appropriate amount of ΜΤΤ solution was added to each well and the plate was incubated for 4 h. During the incubation time, the formazan crystals were formed, which were then dissolved with 100 μL DMSO per well. Finally, the plate was stirred for 30 min, and the optical density (OD) was measured in a plate reader spectrophotometer at 450 nm.

Row | Structure (SMILES) | RM [1] | AAPH % Inhibition 100 μM [2] | cytotoxicity at 10 µM (A549 cell line; A549, 10 μΜ) [%] | cytotoxicity at 50 µM (A549 cell line; A549, 50 μΜ) [%] | cytotoxicity at 100 µM (A549 cell line) [%] | melting point [°C] | AAPH % Inhibition 100 μM ([2]; 100 µM) | % Cell Toxicity 10 μΜ (A549 cell line; A549, 10 μΜ) | % Cell Toxicity 50 μΜ (A549 cell line; A549, 50 μΜ)
1 | O=c1[nH]c(=S)[nH]c2nc(-c3ccccc3)cc(-c3ccc(Cl)cc3)c12 [Compound 2e, 5-(4-chlorophenyl)-7-phenyl-2-thioxo-2,3-dihydropyrido [2,3-d]pyrimidin-4(1H)-one] | −0.87 | 33% | 48 | 83.9 | 82.1 | > 300 | – | – | –
2 | O=C(/C=C/c1cccs1)c1ccc(Cl)cc1 [Compound 1d, (E)-1-(4-chlorophenyl)-3-(thiophen-2-yl)prop-2-en-1-one] | −0.46 | 8% | 47.4 | 83.2 | 100 | – | – | – | –
3 | O=C(/C=C/c1ccc(Cl)cc1)c1ccccc1 [Compound 1e, (E)-3-(4-chlorophenyl)-1-phenylprop-2-en-1-one] | −0.50 | 4% | – | 6.8 | 36.8 | – | – | – | –
4 | O=C(/C=C/c1ccccc1)c1ccccc1 [Compound 1a, (E)-1,3-diphenylprop-2-en-1-one] | −0.57 | 6% | 41.8 | 81.6 | 100 | – | – | – | –
5 | O=c1[nH]c(=S)[nH]c2nc(-c3ccc(Cl)cc3)cc(-c3ccc(Cl)cc3)c12 [Compound 2f, 5,7-bis(4-chlorophenyl)-2-thioxo-2,3-dihydropyrido [2,3-d]pyrimidin-4(1H)-one] | −0.91 | no activity | 48.6 | 88.1 | 100 | > 300 | no | – | –
6 | O=c1[nH]c(=S)[nH]c2nc(-c3ccc(Cl)cc3)cc(-c3ccc(Cl)cc3Cl)c12 [Compound 2h, 7-(4-chlorophenyl)-5-(2,4-dichlorophenyl)-2-thioxo-2,3-dihydropyrido [2,3-d]pyrimidin-4(1H)-one] | −0.48 | 99% | 49.1 | 76.9 | 100 | 274 to 276 | – | – | –
7 | O=c1[nH]c(=S)[nH]c2nc(-c3ccccc3)cc(-c3cccs3)c12 [Compound 2c, 7-phenyl-5-(thiophen-2-yl)-2-thioxo-2,3-dihydropyrido [2,3-d]pyrimidin-4(1H)-one] | −0.83 | 52% | 49.4 | 63.6 | 100 | 260 to 262 | – | – | –
8 | O=C(/C=C/c1ccc(Cl)cc1Cl)c1ccccc1 [Compound 1g, (E)-3-(2,4-dichlorophenyl)-1-phenylprop-2-en-1-one] | −0.21 | 39% | – | – | 10.8 | 68 to 70 | – | no | no
9 | O=c1[nH]c(=S)[nH]c2nc(-c3ccc(Cl)cc3)cc(-c3ccccc3)c12 [Compound 2b, 7-(4-chlorophenyl)-5-phenyl-2-thioxo-2,3-dihydropyrido [2,3-d]pyrimidin-4(1H)-one] | −0.87 | 62% | 47.9 | 83.5 | 100 | > 300 | – | – | –
10 | O=c1[nH]c(=S)[nH]c2nc(-c3ccc(Cl)cc3)cc(-c3cccs3)c12 [Compound 2d, 7-(4-chlorophenyl)-5-(thiophen-2-yl)-2-thioxo-2,3-dihydropyrido [2,3-d]pyrimidin-4(1H)-one] | −0.80 | 62% | 48.6 | 100 | 100 | > 300 | – | – | –
11 | O=c1[nH]c(=S)[nH]c2nc(-c3ccccc3)cc(-c3ccc(Cl)cc3Cl)c12 [Compound 2g, 5-(2,4-dichlorophenyl)-7-phenyl-2-thioxo-2,3-dihydropyrido [2,3-d]pyrimidin-4(1H)-one] | −0.60 | 95% | – | 79.1 | 79.4 | > 300 | – | – | –
12 | O=C(/C=C/c1ccc(Cl)cc1)c1ccc(Cl)cc1 [Compound 1f, (E)-1,3-bis(4-chlorophenyl)prop-2-en-1-one] | −0.24 | 51% | 48.9 | 67.6 | 100 | 160 to 162 | – | – | –
13 | O=c1[nH]c(=S)[nH]c2nc(-c3ccccc3)cc(-c3ccccc3)c12 [Compound 2a, 5,7-diphenyl-2-thioxo-2,3-dihydropyrido [2,3-d]pyrimidin-4(1H)-one] | −0.95 | 52% | 56.4 | 75 | 80.9 | > 300 | – | – | –
14 | O=C(/C=C/c1ccccc1)c1ccc(Cl)cc1 [Compound 1b, (E)-1-(4-chlorophenyl)-3-phenylprop-2-en-1-one] | −0.50 | 51% | 49.2 | 88.1 | 100 | – | – | – | –
15 | O=C(/C=C/c1ccc(Cl)cc1Cl)c1ccc(Cl)cc1 [Compound 1h, (E)-1-(4-chlorophenyl)-3-(2,4-dichlorophenyl)prop-2-en-1-one] | −0.05 | 2% | 49.1 | 81.1 | 100 | – | – | – | –
